# Experimental data reported in US7160902B2, “Amide derivatives and methods of their use” (Adolor Corporation, priority 2003, dated 2007).
# How the values were obtained:
# [1] = molecular target: T1, cloned human κ opioid receptor (Homo sapiens, UniProt P41145); assay: In vitro binding assay, inhibition of [3H]diprenorphine binding, κ receptor; details: [3H]diprenorphine displacement; read-out: Ki against the human κ receptor
# T1 construct: expressed in transfected cells
# Protocol: (§1) The potencies of the compounds of the invention were determined by testing the ability of a range of concentrations of each compound to inhibit the binding of the non-selective opioid antagonist, [^3H]diprenorphine, to the cloned human μ, κ, and δ opioid receptors, expressed in separate cell lines. IC50 values were obtained by nonlinear analysis of the data using GraphPad Prism version 3.00 for Windows (GraphPad Software, San Diego). Ki values were obtained by Cheng-Prusoff corrections of IC50 values.
# (§2) The receptor binding method was a modification of the method of K. Raynor et al. (Mol. Pharmacol. 1994, 45, 330–334). […] The filters were rinsed 4 times with 1 mL of cold 50 mM Tris HCl, pH 7.8 and radioactivity remaining on the filters determined by scintillation spectroscopy. Nonspecific binding was determined by the minimum values of the titration curves and was confirmed by separate assay wells containing 10 μM naloxone. Ki values were determined by Cheng-Prusoff corrections of IC50 values derived from nonlinear regression fits of 12 point titration curves using GraphPad Prism® version 3.00 for Windows (GraphPad Software, San Diego, Calif.).
# (§3) To determine the equilibrium dissociation constant for the inhibitors (Ki), radioligand bound (cpm) in the presence of various concentrations of test compounds was measured. […]
# cloned human κ receptors = molecular target: T2, cloned human κ receptors (Homo sapiens, UniProt P41145); assay: Stimulation of [35S]GTPγS binding to membranes; assay type: biochemical
# T2 construct: expressed in transfected cells
# Protocol: The potencies of the agonists were assessed by their abilities to stimulate [^35S]GTPγS binding to membranes containing the cloned human κ receptors.
# To determine the EC50 value, which was the concentration to give half-maximal stimulation of [^35S]GTPγS binding, the amount of [^35S]GTPγS bound in the presence of various concentrations of agonists was measured. The EC50 value was then determined.
# [2] = system: acetic acid-induced writhing; assay: Acetic acid-induced writhing; assay type: in vivo, male CF-1 mice; details: Mus musculus, sc; administered subcutaneously; read-out: ED50, blocking of acetic acid-induced writhing
# Protocol: Injection of acetic acid into the peritoneal cavity is used as the noxious stimulus, and the number of writhing responses that occur in response to acetic acid are counted in order to quantify the response to pain.
# The writhing assay is adapted from the procedure originally described by Taber, et al. (J. Pharmacol. Exp. Ther. 169: 29–38, 1986), using male CF-1 mice weighing 20–25 g. Animals are treated with various doses of drugs prior to the administration of an i.p. injection of 0.6% acetic acid solution. Mice are then placed into observation chambers and the number of writhing responses, as defined by a full hind limb extension and retraction, are recorded.
# The mean number of writhing responses is calculated for vehicle-treated control mice, and the percent inhibition (% I) of writhing is calculated for each mouse that is treated with drug using the following formula: % I=100×(mean control writhing responses−individual test responses)(mean control writhing responses) (f) Hyperalgesia Induced by Tape Stripping
# [3] = molecular target: T3, cloned human μ opioid receptor (Homo sapiens, UniProt P35372); assay: In vitro binding assay, inhibition of [3H]diprenorphine binding, μ receptor; details: κ versus μ
# T3 construct: expressed in transfected cells
# Protocol: as §1, §2, §3
# [4] = molecular target: T4, cloned human δ opioid receptor (Homo sapiens, UniProt P41143); assay: In vitro binding assay, inhibition of [3H]diprenorphine binding, δ receptor; details: κ versus δ
# T4 construct: expressed in transfected cells
# Protocol: as §1, §2, §3
# [5] = system: formalin-induced flinching; assay: In vivo formalin-induced nociception assay; set-up: species or system male Sprague-Dawley rats; details: dose of 300 μg, i.paw
# Source text: Administration of formalin into the paw results in a localized inflammation and a pain response that is moderate in intensity and continuous in duration. Unlike many other assays of nociception, the formalin assay measures tonic pain that is a result of tissue injury, and therefore is a model that is more relevant to clinical pain states in humans (See Tjolsen et al., Pain 51: 5–17, 1992). In the rat the response to formalin-induced pain consists of spontaneous flinching behavior, characterized by paw lifting and paw shaking, and a rapid vibration of the paw after drawing it under the body. […] The early or acute phase lasts from 0–5 minutes post-formalin and is followed by a quiescent period lasting approximately 15 minutes. The tonic phase occurs from 20–35 minutes following formalin injection and is the interval where the number of flinching responses is maximal. […]
# Inflammation is induced by subcutaneous injection of […] of a 5% formalin solution into the dorsal surface of the right hind paw of male Sprague-Dawley rats weighing 70–90 g. Injections of drug are given into the dorsal surface of the paw prior to formalin injection, and flinching behavior is quantified by counting the number of responses that occur during the tonic phase of pain, lasting from 20–35 minutes after formalin injection. […]
# T2 sequence (P41145 whole entry): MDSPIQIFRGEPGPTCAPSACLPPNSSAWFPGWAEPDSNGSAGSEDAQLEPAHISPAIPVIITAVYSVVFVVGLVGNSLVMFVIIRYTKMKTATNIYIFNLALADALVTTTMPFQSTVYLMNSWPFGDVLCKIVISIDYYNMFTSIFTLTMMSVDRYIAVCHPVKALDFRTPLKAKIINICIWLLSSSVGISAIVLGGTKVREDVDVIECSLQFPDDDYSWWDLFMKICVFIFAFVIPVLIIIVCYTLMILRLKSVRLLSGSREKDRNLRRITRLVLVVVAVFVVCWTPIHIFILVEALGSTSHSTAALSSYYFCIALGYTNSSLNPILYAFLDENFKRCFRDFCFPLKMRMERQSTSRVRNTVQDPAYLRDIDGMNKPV
# T3 sequence (P35372 whole entry): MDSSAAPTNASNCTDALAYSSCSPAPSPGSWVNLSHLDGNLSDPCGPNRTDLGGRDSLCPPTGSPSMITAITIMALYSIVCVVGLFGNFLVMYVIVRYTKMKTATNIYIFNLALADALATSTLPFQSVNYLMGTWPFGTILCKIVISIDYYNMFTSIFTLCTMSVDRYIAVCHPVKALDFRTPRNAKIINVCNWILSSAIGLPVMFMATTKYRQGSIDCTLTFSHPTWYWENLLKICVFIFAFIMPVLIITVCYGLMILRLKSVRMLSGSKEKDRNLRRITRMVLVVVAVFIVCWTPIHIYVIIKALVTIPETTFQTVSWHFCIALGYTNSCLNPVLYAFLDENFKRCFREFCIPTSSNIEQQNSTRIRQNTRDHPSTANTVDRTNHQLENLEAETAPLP
# T4 sequence (P41143 whole entry): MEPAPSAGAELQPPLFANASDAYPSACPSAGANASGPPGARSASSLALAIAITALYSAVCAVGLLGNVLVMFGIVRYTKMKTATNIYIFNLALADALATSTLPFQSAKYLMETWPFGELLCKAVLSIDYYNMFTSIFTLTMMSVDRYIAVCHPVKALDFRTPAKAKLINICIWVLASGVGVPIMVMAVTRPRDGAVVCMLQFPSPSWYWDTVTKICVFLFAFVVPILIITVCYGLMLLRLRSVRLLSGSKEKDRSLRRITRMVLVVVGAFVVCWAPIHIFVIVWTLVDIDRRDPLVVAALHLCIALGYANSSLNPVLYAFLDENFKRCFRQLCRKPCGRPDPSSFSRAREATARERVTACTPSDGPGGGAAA
# T1 sequence (P41145 whole entry): as the sequence (P41145 whole entry) above
smiles,measurement,setting,value
"CN(C(=O)CNc1ccccc1)[C@H](CN1CC[C@H](O)C1)c1ccccc1 [Example 1, N-{2-[(S)-3-Hydroxy-pyrrolidin-1-yl]-(S)-1-phenyl-ethyl}-N-methyl-2-phenylamino-acetamide]",Ki,[1],0.17 nM
same,functional activity at κ receptor,cloned human κ receptors,agonist
same,EC50,"cloned human κ receptors; half-maximal stimulation of [35S]GTPγS binding, read-out: EC50 (agonist)",0.05 nM
same,ED50,[2],0.017 mg/kg
same,selectivity versus the human μ receptor,[3],> 100 ×
same,selectivity versus the human δ receptor,[4],> 100 ×
same,% A (percent antagonism of formalin-induced flinching),[5],96.2%
